Experimental data published in patent publication US6492536B2, “Steroids, their use as medicaments, their preparation process, the intermediates of this process and the compositions containing them” (Aventis Pharma S.A., priority 1996, dated 2002).

Tests used:
male mice = test: Ear oedema test induced by croton oil; format: in vivo; conditions: applied to the ear, 6 hours
Experimental: Ear Oedema Test Induced by Croton Oil
The products have also been tested in the model of the ear oedema of mice using croton oil according to the method described in Tonelli et al. (Endocrinology, 1965, 77, 625-634). An ear oedema is induced in male mice weighing 18 to 22 g, by using croton oil (2% v/v) in a pyridine-water-ether solution 4:1:14.6 (by volume). The animals are sacrificed 6 hours later, the ears are removed and weighed. The difference in weight between the ear treated with croton oil and the contralateral ear (non-treated) allows 100% of the oedema to be determined. The products to be tested are dissolved in the solution of croton oil and applied to the ear.

Female Wistar rats [1] = test: Thymolytic activity (thymus weight in granuloma test); format: in vivo; conditions: rat, oral route, once a day for four days
Experimental: (§1) Granuloma Test—Thymolytic Activity
(§2) The anti-inflammatory activity was studied according to the standard granuloma test. The technique used is a modification of the method of Meier and Coll. (Experentia, 1950, 6, 469). Female Wistar rats, weighing 90 to 100 g, receive an implantation of two cotton pellets of 10 mg each under the skin of the thorax. The products are immediately administered by oral route, a the rate of once a day for four days. The animals are then sacrificed. The pellets surrounded by the granuloma tissue formed, are weighed in the fresh state, then after eighteen hours at 60° C. The weight of the granuloma is obtained by deduction of the initial weight of the cotton.
The thymuses are also removed and weighed in order to determine the thymolytic activity of the products.

Male Wistar rats = test: Retarded hypersensitivity test (M. Tuberculosis), immunosuppressive activity; format: in vivo; conditions: oral route from day 4 to 7, paw oedema 24 hours after antigen; for ED50: Mycobacterium tuberculosis, 4TO7, rat, read-out: Retarded hypersensitivity (M. Tuberculosis, rat) ED 50
Experimental: 3) Immunosuppressive Activity.
The immunosuppressive activity was studied according to the retarded hypersensitivity test described in the article by Hambleton et al. (Agents and Actions, […], 29, 328). Male Wistar rats weighing 150 to 160 g are sensitized on day 0 with a suspension of Mycobacterium Tuberculosis 4 mg/ml in parrafin oil by a sub-cutaneous injection at the base of the tail (0.1 ml/animal).
The products are administered by oral route from day 4 to 7.
On day 7, one hour after the last administration, the animals receive an injection of the soluble fraction of the antigen triggering the hypersensitivity reaction: 0.4 mg/rat in 0.2 ml by intraplantar route in a rear paw, the other receives the same quantity of solvent.
The oedema is measured 24 hours afterwards using an UGO BASIL plethysmometer from APELEX.
The activity of the products is evaluated by the percentage reduction in the increase of the injected paw relative to that of the control animals.

Female Wistar rats [2] = test: Granuloma test (cotton pellets), anti-inflammatory activity; format: in vivo; conditions: rat, oral route, once a day for four days
Experimental: as §1, §2

collagenase promoter = test: Regulation of transcription in transfected Hela cells: transrepression (Coll (-517/+63) CAT plasmid); format: cell-based; conditions: 24 hours, CAT ELISA; for inhibition at 1 µM / inhibition at 0.1 µM / inhibition at 0.01 µM / inhibition at 0.001 µM: Homo sapiens
Experimental: (§3) The molecules according to the invention have been tested in models of HELA cells transfected with the GRE-tk-CAT plasmid (transactivation), or with the pColl-CAT plasmid (transrepression). (Cf. TEST 1)
(§4) I) Study of the regulation of transcription in transfected Hela cells.
(§5) Hela cells (ATCC ref: CCL-2) are distributed in a 6-well plate, in a nutritive medium with a density of 4×10^5 cells/ml, 24 hours before the transfection, and are incubated at 37° C. The transitory transfections are produced according to the precipitate method with calcium phosphate. In the case of the study of transactivation, the cells are transfected with 1 μg of GRE-tk-CAT plasmid, 1 μg of polyII β-GAL plasmid and KS plasmid (Stratagene), s.q.f. 5 μg. In the case of the study of transrepression, the cells are transfected with 3 μg of Coll (−517/+63) CAT plasmid, 250 ng of pSV-cjun plasmid, 1 μg of polyII β-GAL plasmid and KS plasmid (Stratagene), s.q.f. 5 μg. The precipitate is left in contact with the cells for 16 hours. These are then rinsed and covered with the nutritive medium containing different concentrations of Dexamethasone or the products to be studied (10^−9M, 10^−8M, 10^−7M, 10^−6M). 24 hours after the addition of the products, the cells are lysed in 250 μl of MOPS-NaCl-Triton X-100 buffer. The CAT is dosed in the cellular extracts using the ELISA Kit (Boehringer Mannheim).

GRE-tk promoter = test: Regulation of transcription in transfected Hela cells: transactivation (GRE-tk-CAT plasmid); format: cell-based; conditions: 24 hours, CAT ELISA
Experimental: as §3, §4, §5

In the case of `CSCC(=O)[C@H]1[C@H](C)C[C@H]2[C@@H]3CCC4=CC(=O)C=C[C@]4(C)[C@@]3(F)[C@@H](O)C[C@@]21C` [Example 1, 9α-fluoro-11β-hydroxy-16α-methyl-21-thiomethyl-pregna-1,4-diene-3,20-dione], the “Oedema using croton oil (mouse) ED 50” value (male mice) is reported as 10 μg/ear, the “Thymolysis ED 50” value (Female Wistar rats [1]) is reported as 2.5 mg/kg/po and the “Retarded hypersensitivity (M. Tuberculosis, rat) ED 50” value (Male Wistar rats) is reported as 2.3 mg/kg. The “Granuloma ED 50” value (Female Wistar rats [2]) was 5 mg/kg/po, the “Inhibition of the Coll promoter (%)” value (collagenase promoter; 10^-6 M) was 81.79 +/− 2.98% and the “Inhibition of the Coll promoter (%)” value (collagenase promoter; 10^-7 M) was 57.61 +/− 2.46%. The “Inhibition of the Coll promoter (%)” value (collagenase promoter; 10^-8 M) was 37.12 +/− 6.7%, the “Inhibition of the Coll promoter (%)” value (collagenase promoter; 10^-9 M) was 3.57 +/− 3.09% and the “Activation of GRE-tk (%)” value (GRE-tk promoter; 10^-6 M) was 37.56 +/− 1.9%. For the same molecule, the “Activation of GRE-tk (%)” value (GRE-tk promoter; 10^-7 M) was 35.21 +/− 2.24%, the “Activation of GRE-tk (%)” value (GRE-tk promoter; 10^-8 M) was 27.74 +/− 1.05% and the “Activation of GRE-tk (%)” value (GRE-tk promoter; 10^-9 M) was 3.78 +/− 0.87%.
With `C[C@@H]1C[C@H]2[C@@H]3CCC4=CC(=O)C=C[C@]4(C)[C@@]3(F)[C@@H](O)C[C@]2(C)[C@H]1C(=O)CC#N` [Example 2, 9α-fluoro-11β-hydroxy-16α-methyl-pregna-1,4-diene-3,20-dione-21-carbonitrile] the “Oedema using croton oil (mouse) ED 50” value (male mice) was 2 μg/ear, the “Thymolysis ED 50” value (Female Wistar rats [1]) was 2.5 mg/kg/po and the ED50 (Male Wistar rats) was 1.5 mg/kg. For the same molecule, the “Granuloma ED 50” value (Female Wistar rats [2]) was over 7 mg/kg/po, the inhibition at 1 µM (collagenase promoter; 10^-6 M) was 75.6% and the inhibition at 0.1 µM (collagenase promoter; 10^-7 M) was 81.3%. The inhibition at 0.01 µM (collagenase promoter; 10^-8 M) was 36.2%, the inhibition at 0.001 µM (collagenase promoter; 10^-9 M) was 20.6% and the “Activation of GRE-tk (%)” value (GRE-tk promoter; 10^-6 M) was 16.92 +/− 3.55%. The “Activation of GRE-tk (%)” value (GRE-tk promoter; 10^-7 M) was 10.45 +/− 4.33%, the “Activation of GRE-tk (%)” value (GRE-tk promoter; 10^-8 M) was 1.34 +/− 1.33% and the “Activation of GRE-tk (%)” value (GRE-tk promoter; 10^-9 M) was 0%.
`C[C@@H]1C[C@H]2[C@@H]3CCC4=CC(=O)C=C[C@]4(C)[C@@]3(F)[C@@H](O)C[C@]2(C)[C@@]1(O)C(=O)CO` [Dexamethasone, reference compound] was tested, and the “Oedema using croton oil (mouse) ED 50” value (male mice) was 1 μg/ear, the “Thymolysis ED 50” value (Female Wistar rats [1]) was under 0.05 mg/kg/po and the ED50 (Male Wistar rats) was 0.05 mg/kg. For the same molecule, the “Granuloma ED 50” value (Female Wistar rats [2]) was 0.1 mg/kg/po, the inhibition at 1 µM (collagenase promoter; 10^-6 M) was 93.1% and the inhibition at 0.1 µM (collagenase promoter; 10^-7 M) was 96.6%. The inhibition at 0.01 µM (collagenase promoter; 10^-8 M) was 87.6%, the inhibition at 0.001 µM (collagenase promoter; 10^-9 M) was 42.2% and the “Activation of GRE-tk (%)” value (GRE-tk promoter; 10^-6 M) was 98.82 +/− 1.18%. For the same molecule, the “Activation of GRE-tk (%)” value (GRE-tk promoter; 10^-7 M) was 89.48 +/− 2.26%, the “Activation of GRE-tk (%)” value (GRE-tk promoter; 10^-8 M) was 53.38 +/− 2.65% and the “Activation of GRE-tk (%)” value (GRE-tk promoter; 10^-9 M) was 7.34 +/− 2.57%.
`C[C@]12C=CC(=O)C=C1CC[C@@H]1[C@@H]2[C@@H](O)C[C@@]2(C)[C@H]1CC[C@]2(O)C(=O)CO` [Prednisolone, reference compound] was tested, and the “Oedema using croton oil (mouse) ED 50” value (male mice) was 4 μg/ear, the “Thymolysis ED 50” value (Female Wistar rats [1]) was 1.6 mg/kg/po and the ED50 (Male Wistar rats) was 5 to 20 mg/kg. For the same molecule, the “Granuloma ED 50” value (Female Wistar rats [2]) was 2.5 mg/kg/po.
